# Data: patent US9285322B2, “pH modulation methods and systems for detecting binding events” (The Texas A&M University System, priority 2010, dated 2016)
# Assays:
# different kinases = conditions: cited from earlier work
# calmodulin [1] = biological target: T1, calmodulin (Homo sapiens, UniProt P0DP23); conditions: 1 M CaCl2, 66 μM dye-conjugated calmodulin, 10 mM Tris, 100 mM NaCl, pH 7.4
# calmodulin [2] = biological target: T1, calmodulin; conditions: read-out: equilibrium dissociation constant; cited from earlier work
# avidin [3] = biological target: T2, avidin (Gallus gallus, UniProt P02701); test: homogeneous biotin detection with ortho-TEXAS RED-conjugated avidin in microfluidic channels; type: binding; conditions: 200 μM biotin, 10 μM ortho-TEXAS RED-conjugated avidin, PBS, pH 8.2
# T2 sequence (P02701 25-152): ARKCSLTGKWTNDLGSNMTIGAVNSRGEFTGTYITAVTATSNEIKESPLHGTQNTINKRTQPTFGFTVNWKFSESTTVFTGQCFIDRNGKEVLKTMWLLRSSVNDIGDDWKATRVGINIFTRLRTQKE
# avidin [4] = biological target: T2, avidin; test: protein-protein interaction assay: labeled avidin with biotinylated BSA in two parallel microfluidic channels; type: binding
# [5] = biological target: biotinylated bovine serum albumin (bovine) (UniProt P02769); test: homogeneous pH modulation fluorescence assay in two parallel microfluidic channels; 3 uM labeled avidin, 500 nM biotinylated BSA, 150 mM NaCl, 10 mM PBS, pH 7.0
# Sequence of biotinylated bovine serum albumin (bovine) (P02769 25-607 limits assumed): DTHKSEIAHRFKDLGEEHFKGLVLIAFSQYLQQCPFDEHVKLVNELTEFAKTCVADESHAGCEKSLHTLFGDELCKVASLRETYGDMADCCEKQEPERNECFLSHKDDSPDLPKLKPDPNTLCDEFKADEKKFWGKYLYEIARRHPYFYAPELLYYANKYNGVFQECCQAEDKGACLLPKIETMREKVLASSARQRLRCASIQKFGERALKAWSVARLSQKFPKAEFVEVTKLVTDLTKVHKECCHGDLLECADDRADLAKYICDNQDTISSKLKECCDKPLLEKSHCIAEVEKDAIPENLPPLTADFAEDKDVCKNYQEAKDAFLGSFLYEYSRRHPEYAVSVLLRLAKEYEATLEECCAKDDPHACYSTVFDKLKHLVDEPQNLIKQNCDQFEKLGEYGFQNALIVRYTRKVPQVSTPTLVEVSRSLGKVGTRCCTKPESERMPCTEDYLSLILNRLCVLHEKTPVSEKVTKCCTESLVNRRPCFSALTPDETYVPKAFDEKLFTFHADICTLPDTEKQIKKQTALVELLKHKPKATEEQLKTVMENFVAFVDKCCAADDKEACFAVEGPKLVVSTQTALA
compound,measurement,setting,value
"Nc1ncnc2c1ncn2[C@@H]1O[C@H](COP(=O)(O)OP(=O)(O)OP(=O)(O)O)[C@@H](O)[C@H]1O [ATP, adenosine triphosphate]",affinities of different kinases for ATP,different kinases,tens of nanomolar to hundreds of micromolar
"[Ca+2].[Cl-].[Cl-] [Ca^2+, calcium chloride]",attenuation in fluorescence intensity (factor) when Ca2+ is present,calmodulin [1],two
same,Kd,calmodulin [2],14 µM
O=C(O)CCCC[C@@H]1SC[C@@H]2NC(=O)N[C@@H]21 [biotin],fluorescence intensity increase (factor) when biotin was present,avidin [3],six
biotinylated BSA: biotinylated bovine serum albumin,signal in channel with biotinylated BSA relative to channel without (times brighter),"avidin [4]; 500 nM biotinylated BSA, 3 μM ortho-TEXAS RED succinimidyl ester labeled avidin, 150 mM NaCl, 10 mM PBS, pH 7.0",approximately eight
ortho-TEXAS RED succinimidyl ester labeled avidin (from UniProt P02701 25-152),fluorescence intensity with biotinylated BSA relative to the channel without it,[5],8 fold
para-sulforhodamine 101 [para-TEXAS RED®],"fluorescence difference between channels with and without biotinylated BSA, control dye","avidin [4]; control with para-TEXAS RED under identical conditions (500 nM biotinylated BSA, pH 7.0)",no difference between the two channels
